# Patent US20040044304A1, “Local drug delivery using photosensitizer-mediated and electromagnetic radiation enhanced vascular permeability” (priority 2002, published 2004)
# Key:
# [1] = Molar extinction coefficient of the photosensitizer; type: physicochemical; design: Molar extinction coefficient: unit not given here; conditions: for Peak extinction coefficient: in M-1 cm-1 (unit assumed)
# [2] = tested on: blood vessels within the dorsal window chamber; type: in vivo, mice of strain C3H
# Excerpt: Male mice of strain C3H (sourced from The Jackson Laboratory, 600 Main Street, Bar Harbor, Me. 04609 USA) weighing between 28-30 gram were surgically implanted with titanium back-pack window chambers in a similar manner to that described for Syrian Golden hamsters as described above. Prior to the surgical procedure, the dorsal surface of the mouse was shaved with electric clippers (Sunbeam Oster 2-Speed, 150 Cadillac Lane, McMinnville, Tenn., 37110) and then the shaved skin covered in a depilatory cream (Nair, Carter Products, New York, N.Y., 10105) for 10 minutes to remove the remaining hair. Then a dorsal skin fold consisting of two layers of skin and muscle tissue was sandwiched between two opposing titanium frames (Campus Research Machine Shop, University of California, San Diego 9500 Gilman Drive, La Jolla, Calif.) with a 14 mm circular opening in each. Layers of skin and muscle fascia were separated from the sub-cutaneous tissue, and removed until a thin monolayer of muscle and one layer of intact skin remained. A coverglass (Type Circle 1, Part #12-545-80 sourced from Fisher Scientific, 2761 Walnut Avenue, Tustin, Calif., 92780) held by an expansion ring in the circular window of one titanium frame was then placed on the exposed tissue to allow direct microscopic visualization of the vasculature. The window in the second opposing titanium frame was left open exposing the intact skin.
# Microvascular observations using an intra-vital microscope were not undertaken until at least 2 days post-chamber implantation to mitigate against post-surgical trauma, and to confirm that blood vessels within the chamber were functioning and intact and patent. A chamber was considered suitable for subsequent studies if microscopic examination of the preparation met the following criteria (as applied in Friesenecker et al., 1994):
# The intra-vital microscopic studies were undertaken on un-sedated animals held in a Plexiglass tube (manufactured by Miravant Medical Technologies, Inc., 336 Bollay Drive, Santa Barbara, 93117) from which the window chamber sandwich protruded horizontally, allowing visualization of the chamber on the microscope stage. The Plexiglass tube acted to restrain the animals without impeding respiration. The intra-vital microscopy was performed using a Leitz Dialux 22 (West LA Microscope Co., Butler Avenue, Santa Monica, 90025) fitted with a Leitz Wetzlar 20× L20 lens (0.32 numerical aperture), a Leitz Wetzlar 10× Planfluotar lens (0.30 numerical aperture), a Leitz Wetzlar 4× EF lens (0.12 numerical aperture), a Leitz Wetzlar 2.5× P1 lens (0.08 numerical aperture, and an Olympus 20× Wplan water immersion lens (0.4 numerical aperture). The intra-vital microscope system used for these studies was fitted with two trans-illumination light sources and one epi-illumination light source. The two trans-illumination sources were used in the following manner. One trans-illumination light source was used for imaging the tissue within the window chamber, and the other was used as the irradiation source for activating the photosensitizer in the tissue. The imaging source was a […] mercury arc lamp (Type 307-143.004 from Ernst Leitz Wetzlar GmBH, Germany) which was powered by an HBO 100 power supply (LEP Ltd., Scarsdale, N.Y.). The output from this source was filtered using a #H43157 interference filter (Edmund Scientific, 101 East Gloucester Pike, Barrington, N.J., 08007-1380), to produce a beam of 410 nm light. The irradiation source was a Model DD4 Diode Laser (Miravant Medical Technologies 336 Bollay Drive., Santa Barbara, Calif., 93117), which produced 664 nm light.
"Edema in field ([2]; mouse, in vivo, iv, 0.05 mg/kg)","Focal edema and cellular infiltrate ([2]; mouse, in vivo, iv, 0.05 mg/kg)",Compound,Peak extinction coefficient ([1]; at 437 nm),Peak extinction coefficient ([1]; at 661 nm),Absorbance at activation wavelength relative to peak spectral absorbance ([1]; green 530 nm-560 nm),Molar extinction coefficient ([1]; green wavelength band 530 nm-560 nm),"Extravasation of FITC-Dextran from larger vessels in field ([2]; mouse #2, MV6401 0.05 mg/kg i.v., 664 nm, 15 J/cm^2, 50 mW/cm^2, FITC-Dextran 1 day post PhotoPoint therapy)","Extravasation of FITC-Dextran from many vessels in the treatment field ([2]; mouse #3, MV6401 0.05 mg/kg i.v., 664 nm, 20 J/cm^2, 50 mW/cm^2, FITC-Dextran 2 days post PhotoPoint therapy)","Focal vascular damage in the treatment field, immediately post FITC-Dextran administration ([2]; mouse, in vivo, iv, 0.05 mg/kg)","Tissue damage, subsequent observation ([2]; mouse, in vivo, iv, 0.05 mg/kg)","Vascular damage, subsequent observation ([2]; mouse, in vivo, iv, 0.05 mg/kg)"
,,"CCOC(=O)C1=Cc2c3nc(cc4nc(cc5[n-]c(cc6[n-]c2c(C)c6CC)c(C)c5CC)C(C)=C4CC)[C@@H](C)[C@]13CC.[Cl-].[Cl-].[Sn] (racemic) [SnET2, tin ethyl etiopurpurin]","165,456","52,552",less than 5%,4312,,,,,
Mild edema in field.,minor areas of focal,"C=Cc1c(C)c2[n]3c1=CC1=NC(=Cc4c(C)c5c([n]4[In]3[Cl])C(=C3N=C(C=2)[C@@H](C)[C@@H]3CCC(=O)OC)CC5=O)C(CC)=C1C [MV6401, indium methyl pyropheophorbide]",,,,,Pronounced extravasation,flowing. Pronounced,Some evidence of focal,damage. Some evidence,Pronounced focal vascular
